This assay deals with CDK-2 (Homo sapiens, UniProt P24941). The experiment in a line: CDK-2 inhibition (Table 1; fluorescence polarization displacement assay). Type of assay: binding. Conditions: inhibitory effectiveness toward CDK-2. The procedure: The affinity of lead inhibitors binding to CDK-2 and CDK-2/cyclin A were determined by measuring a Ki value using a fluorescence polarization displacement assay. The deacetylated form of compound BMS-250595 was reacted with Alexa Fluor 647 to generate a compound (BMS-Alexa Fluor647) that bound to both proteins and provided a signal for fluorescence polarization displacement. Binding assays were performed in a 384 well Costar NBS coated plate. A total volume of […] contained concentrations of CDK-2 or CDK-2/cyclin A at […], respectively. The concentration of BMS-Alexa Fluor647 was 50 nM. Serial dilutions of compounds were added to 12 wells. The final buffer concentration was 10 mM Hepes, pH 7.5, 150 mM NaCl, and 1 mM DTT. Samples were incubated at room temperature for 15 minutes and then read in an Analyst HT instrument using an excitation and emission wavelength of 580 and 680 nm, respectively. The […] curve fitting tool described by Zhang et al., 2004 (Zhang R., Mayhood T., Lipari P., Wang Y., Durkin D., Syto R., Gesell J., McNemar C., and Windsor W., Analytical Biochemistry 331 (2004) 138-146)
Turning to `O=C(NCc1ccc2c(c1)CCO2)c1ccc(C(=O)Nc2ccc(-n3cncn3)cc2)s1` [Compound 115], the IC50 is at least 40 µM.

Turning to `Cc1ccnc(NC(=O)c2ccc(C(=O)Nc3ccc(-n4cncn4)cc3)s2)c1` [Compound 100], the IC50 is at least 40 µM. The result for `COc1ccc(NC(=O)c2ccc(C(=O)Nc3ccc(-c4cnco4)cc3)s2)c(C)c1` [Compound 131] reads at least 40 µM; that for `COc1ccc(NC(=O)c2ccc(C(=O)Nc3ccc(C#N)cc3)s2)c(C)c1` [Compound 175], at least 40 µM; that for `Cc1cc(N2CCOCC2)ccc1NC(=O)c1ccc(C(=O)Nc2ccc(-n3cncn3)c(F)c2)s1` [Compound 6], at most 1 µM. The result for `O=C(Nc1ccc(-n2cncn2)c(F)c1)c1ccc(C(=O)Nc2ccccc2Oc2cccnc2)s1` [Compound 205] reads at least 40 µM; that for `O=C(NC[C@@H]1CCNC1)c1ccc(C(=O)Nc2ccc(-n3cncn3)cc2)s1` [Compound 138], at least 40 µM. For `COc1ccc(NC(=O)c2ccc(C(=O)Nc3ccc(-c4nnc[nH]4)cc3)s2)c(C)c1` [Compound 25] the value was at most 1 µM; for `COc1ccc(NC(=O)c2ccc(C(=O)Nc3ccc(CN)cc3)s2)c(C)c1` [Compound 132], at least 40 µM; for `O=C(Nc1ccc(C(=O)Nc2ccc(-n3cncn3)cc2)s1)c1ccncc1` [Compound 194], at least 40 µM. `CC(C)CNC(=O)c1ccc(C(=O)Nc2ccc(-n3cncn3)cc2)s1` [Compound 83] gave an IC50 of at least 40 µM. For `COc1ccc(NC(=O)c2ccc(C(=O)Nc3ccc(N4CCN(C)CC4)cc3)s2)c(C)c1` [Compound 123] the value was at least 40 µM; for `Cc1cc(N[C@H]2CCNC2)ccc1NC(=O)c1ccc(C(=O)Nc2ccc(-n3cncn3)c(F)c2)s1` [Compound 15], at most 1 µM; for `O=C(NC[C@H](O)c1ccccc1)c1ccc(C(=O)Nc2ccc(-n3cncn3)cc2)s1` [Compound 154], at least 40 µM. Compound `COc1ccc(N(C)C(=O)c2ccc(C(=O)Nc3ccc(-n4cncn4)cc3)s2)cc1` [Compound 68] returned an IC50 of 1 to 40 µM. The result for `Cn1nc(-c2ccc(Cl)cc2)cc1NC(=O)c1ccc(C(=O)Nc2ccc(-n3cncn3)cc2)s1` [Compound 196] reads at least 40 µM; that for `O=C(Nc1ccc(C(=O)Nc2ccc(-n3cncn3)cc2)o1)c1ccncc1` [Compound 185], at least 40 µM. As to `Cc1cc(Cn2ccnc2)ccc1NC(=O)c1ccc(C(=O)Nc2ccc(-n3cncn3)c(F)c2)s1` [Compound 10], the IC50 was at most 1 µM. With `O=C(Nc1ccc(-n2cncn2)cc1)c1ccc(C(=O)Nc2ccc3c(c2)OCO3)s1` [Compound 148], the IC50 is at least 40 µM.

The compound `O=C(Nc1ccc(-n2cncn2)cc1)c1ccc(C(=O)Nc2nccs2)s1` [Compound 92] yielded an IC50 of at least 40 µM. The result for `COc1ccc(NC(=O)c2ccc(C(=O)Nc3ccc(-n4cccn4)cc3)s2)c(C)c1` [Compound 129] reads at least 40 µM. For `Cc1cc(OCCO)ccc1NC(=O)c1ccc(C(=O)Nc2ccc(-n3cncn3)cc2)s1` [Compound 4] the value was at most 1 µM; for `O=C(NCCc1ccccc1)c1ccc(C(=O)Nc2ccc(-n3cncn3)cc2)s1` [Compound 108], at least 40 µM. The result for `O=C(Nc1ccc(-n2cncn2)cc1)c1ccc(C(=O)N2CCCC(c3ccccc3)C2)s1` (centres unmarked) [Compound 116] reads at least 40 µM; that for `Cn1nc(C2CC2)cc1NC(=O)c1ccc(C(=O)Nc2ccc(-n3cncn3)cc2)s1` [Compound 64], 1 to 40 µM; that for `COc1ccc(NC(=O)c2ccc(C(=O)Nc3ccc(-c4nc[nH]n4)c(F)c3)s2)c(C)c1` [Compound 22], at most 1 µM. In the case of `COc1ccc(NC(=O)c2ccc(C(=O)Nc3ccc(-n4cncn4)cc3)s2)c(C)c1` [Compound 13], the IC50 was at most 1 µM.

In turn, `Cc1cc(CN(C)C)ccc1NC(=O)c1ccc(C(=O)Nc2ccc(-n3cncn3)c(F)c2)s1` [Compound 48] showed a 50% inhibitory concentration (IC50) of 1 to 40 µM.

`COc1ccc(C(=O)Nc2ccc(C(=O)N3CCC(Oc4cnccn4)CC3)o2)cc1` [Compound 182] registered an IC50 of at least 40 µM.

For the compound `COc1ccc(NC(=O)c2ccc(C(=O)Nc3ccc(OCCN(C)C)cc3)s2)c(C)c1` [Compound 125], the IC50 is at least 40 µM. The result for `O=C(Nc1ccc(-n2cncn2)cc1)c1ccc(C(=O)NC2CCCCC2)s1` [Compound 91] reads at least 40 µM; that for `Cc1cc(N2CCN(C)CC2)ccc1NC(=O)c1ccc(C(=O)Nc2ccc(-n3cncn3)cc2)s1` [Compound 29], at most 1 µM. For `COc1ccc(NC(=O)c2ccc(C(=O)Nc3ccc(N4CCCCC4)cc3)s2)c(C)c1` [Compound 121] the value was at least 40 µM; for `Nc1ccc(CNC(=O)c2ccc(C(=O)Nc3ccc(-n4cncn4)cc3)s2)cn1` [Compound 164], at least 40 µM; for `Cc1ccccc1NC(=O)c1ccc(C(=O)Nc2ccc(-n3cncn3)cc2)s1` [Compound 24], at most 1 µM. In the case of `CCCCN(C)C(=O)c1ccc(C(=O)Nc2ccc(-n3cncn3)cc2)s1` [Compound 86], the IC50 is at least 40 µM. For `COc1ccc(C(=O)Nc2ccc(C(=O)Nc3ccc(-n4cncn4)cc3)o2)c(C)c1` [Compound 186] the value was at least 40 µM. `O=C(Nc1ccc(-n2cncn2)cc1)c1ccc(C(=O)NC2CC2)s1` [Compound 80]: the IC50 is at least 40 µM.

Turning to `O=C(Nc1ccc(-n2cncn2)cc1)c1ccc(C(=O)Nc2cccc(Cl)c2)s1` [Compound 54], the IC50 was in the range of 1 to 40 µM. For `COc1ccc(NC(=O)c2ccc(C(=O)Nc3ccc4nccnc4c3)s2)c(C)c1` [Compound 172] the value was at least 40 µM; for `COc1ccc(C(=O)Nc2ccc(C(=O)Nc3ccc(-c4nc[nH]n4)c(F)c3)s2)c(C)c1` [Compound 8], at most 1 µM; for `CNC(=O)c1ccc(C(=O)Nc2ccc(-n3cncn3)c(F)c2)o1` [Compound 215], at least 40 µM.

On to `COc1ccc(NC(=O)c2ccc(C(=O)Nc3ccc4scnc4c3)s2)c(C)c1` [Compound 173], for which the IC50 is at least 40 µM. The result for `O=C(Nc1ccc(-n2cncn2)c(F)c1)c1ccc(C(=O)N2CCOCC2)o1` [Compound 211] reads at least 40 µM; that for `Cc1cc(Cn2ccnc2)ccc1NC(=O)c1ccc(C(=O)Nc2ccc(-n3cncn3)cc2)s1` [Compound 9], at most 1 µM. The result for `O=C(Nc1ccc(-n2cncn2)cc1)c1ccc(C(=O)NC2CCCC2)s1` [Compound 73] reads 1 to 40 µM; that for `CN1CCN(C(=O)c2ccc(C(=O)Nc3ccc(-n4cncn4)cc3)s2)CC1` [Compound 137], at least 40 µM. The result for `C[C@H](O)CNC(=O)c1ccc(C(=O)Nc2ccc(-n3cncn3)cc2)s1` [Compound 135] reads at least 40 µM; that for `Cc1cnc(CNC(=O)c2ccc(C(=O)Nc3ccc(-n4cncn4)cc3)s2)cn1` [Compound 111], at least 40 µM; that for `O=C(NCc1ccccc1)c1ccc(C(=O)Nc2ccc(-n3cncn3)cc2)s1` [Compound 63], 1 to 40 µM.

`COc1ccc(Cl)cc1NC(=O)c1ccc(C(=O)Nc2ccc(-n3cncn3)cc2)s1` [Compound 62]: the IC50 lay within 1 to 40 µM. For `O=C(Nc1ccc(Cl)cc1)c1ccc(C(=O)Nc2ccc(-n3cncn3)cc2)s1` [Compound 53] the value was 1 to 40 µM; for `COc1ccc(NC(=O)c2ccc(C(=O)Nc3ccc(-c4csnn4)cc3)s2)c(C)c1` [Compound 127], at least 40 µM.
